Laboratory results: patent publication US20230265151A1, “GIP/GLP1 CO-AGONIST COMPOUNDS” (priority 2020, published 2023)
Like-named read-outs stand apart in the source and are kept apart here. *1 amine or outer side, *2 acyl side, *3 side chain or, on linkers, in order; H or OH if unused. Where a SMILES comes first, the peptide text is derived from it. Side-chain parts run from the residue outwards. [ ]: non-standard residue; d: D form. The star is where a group is joined. αMePhe(2-F) = C[C@](N)(Cc1ccccc1F)C(=O)O; γGlu = O=C(O)[C@H](CCC(=O)[*:2])N[*:1]; C14 diacid = O=C(O)CCCCCCCCCCCCC(=O)*; αMeY = C[C@](N)(Cc1ccc(O)cc1)C(=O)O; αMeF = C[C@](N)(Cc1ccccc1)C(=O)O; αMeL = CC(C)C[C@](C)(N)C(=O)O; Orn = NCCC[C@H](N)C(=O)O; AEEA = NCCOCCOCC(=O)O; Aib = CC(C)(N)C(=O)O

Columns and labels:
Type in all cases: cell-based
[1] = molecular target: T1, hGIPR (Homo sapiens, UniProt P48546); assay: Functional cAMP formation (HTRF) in HEK-293 clonal cells expressing hGIPR, 0.1% bovine casein, without or with 1.0% human serum albumin; details: for Emax: read-out: hGIPR Emax, % ± SEM; for EC50: geometric mean, read-out: hGIPR EC50, nM (SEM, n)
T1 construct: expressed in transfected cells
T1 sequence (P48546 22-466): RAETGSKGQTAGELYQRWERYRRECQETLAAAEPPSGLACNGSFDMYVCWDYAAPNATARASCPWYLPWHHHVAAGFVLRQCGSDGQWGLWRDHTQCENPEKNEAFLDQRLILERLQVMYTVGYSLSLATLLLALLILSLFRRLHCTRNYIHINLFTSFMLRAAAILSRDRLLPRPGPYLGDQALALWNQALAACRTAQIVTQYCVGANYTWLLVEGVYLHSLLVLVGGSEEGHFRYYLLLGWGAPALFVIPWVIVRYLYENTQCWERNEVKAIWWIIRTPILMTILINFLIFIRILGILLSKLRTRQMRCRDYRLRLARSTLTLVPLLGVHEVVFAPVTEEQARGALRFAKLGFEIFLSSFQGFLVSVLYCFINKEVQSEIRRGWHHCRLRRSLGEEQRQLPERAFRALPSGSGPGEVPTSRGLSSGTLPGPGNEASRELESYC
Method in brief: (§1)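 Readings of the HTRF 665/620 nm ratio, which falls as cAMP rises, were converted to nM cAMP using a standard curve after 30 min peptide exposure at 37° C.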

[2] = molecular target: T2, hGCGR (Homo sapiens, UniProt P47871); assay: Functional cAMP formation (HTRF) in HEK-293 clonal cells expressing hGCGR, 0.1% bovine casein, without or with 1.0% human serum albumin; details: geometric mean, read-out: hGCGR EC50, nM (SEM, n)
T2 construct: expressed in transfected cells
Method in brief: as §1

[3] = molecular target: hGLP-1R (Homo sapiens, UniProt P43220); assay: Functional cAMP formation (HTRF) in HEK-293 clonal cells expressing hGLP-1R, 0.1% bovine casein, without or with 1.0% human serum albumin; parameters: expressed in transfected cells; details: for Emax: read-out: hGLP-1R Emax, % ± SEM; for EC50: geometric mean, read-out: hGLP-1R EC50, nM (SEM, n)
Method in brief: as §1

[4] = HEK293, percent of maximal response to GIP(1-42)NH2, 37° C., 0.1% bovine casein, arithmetic mean
[5] = cAMP, incubated at 37° C., 0.1% bovine casein (no human serum albumin)
[6] = HEK293, percent of maximal response to GLP-1(7-36)NH2, 37° C., 0.1% bovine casein, arithmetic mean
[7] = HEK293, 0.1% bovine casein and 1.0% human serum albumin, 37° C., percent of maximal response to GIP(1-42)NH2
[8] = 0.1% bovine casein and 1.0% human serum albumin, 37° C.
[9] = HEK293, 0.1% bovine casein and 1.0% human serum albumin, 37° C., percent of maximal response to GLP-1(7-36)NH2

T2 sequence (P47871 26-477): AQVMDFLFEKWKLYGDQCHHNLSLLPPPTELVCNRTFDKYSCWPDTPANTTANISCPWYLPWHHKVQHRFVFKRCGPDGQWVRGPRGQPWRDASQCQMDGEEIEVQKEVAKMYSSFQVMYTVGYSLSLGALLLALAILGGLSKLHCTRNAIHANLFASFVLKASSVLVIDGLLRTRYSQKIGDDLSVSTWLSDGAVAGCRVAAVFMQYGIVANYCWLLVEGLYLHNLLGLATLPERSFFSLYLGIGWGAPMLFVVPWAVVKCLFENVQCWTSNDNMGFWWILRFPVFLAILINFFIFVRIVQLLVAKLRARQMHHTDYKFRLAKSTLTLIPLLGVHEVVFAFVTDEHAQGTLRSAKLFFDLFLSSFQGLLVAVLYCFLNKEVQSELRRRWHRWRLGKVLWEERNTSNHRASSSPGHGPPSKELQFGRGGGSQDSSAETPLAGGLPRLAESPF
Sequence of hGLP-1R (P43220 24-463): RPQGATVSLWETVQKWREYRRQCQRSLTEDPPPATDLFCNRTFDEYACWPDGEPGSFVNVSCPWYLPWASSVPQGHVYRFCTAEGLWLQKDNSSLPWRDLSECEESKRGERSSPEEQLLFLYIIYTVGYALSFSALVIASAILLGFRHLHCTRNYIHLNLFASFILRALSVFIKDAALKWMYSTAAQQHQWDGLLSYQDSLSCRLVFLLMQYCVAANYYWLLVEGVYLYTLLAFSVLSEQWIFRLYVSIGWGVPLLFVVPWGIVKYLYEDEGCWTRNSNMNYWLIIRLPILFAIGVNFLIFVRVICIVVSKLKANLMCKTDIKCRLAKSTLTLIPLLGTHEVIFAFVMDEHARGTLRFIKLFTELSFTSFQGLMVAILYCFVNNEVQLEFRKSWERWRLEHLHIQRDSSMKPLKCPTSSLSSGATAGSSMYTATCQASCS

SMILES | Emax [1, 4] | EC50 [2, 5] | Emax [3, 6] | Emax [1, 7] | EC50 [1, 5] | EC50 [2, 8] | EC50 [3, 8] | Emax [3, 9] | EC50 [1, 8] | EC50 [3, 5]
CC[C@H](C)[C@H](NC(=O)[C@H](CC(C)C)NC(=O)[C@](C)(Cc1ccc(O)cc1)NC(=O)[C@@H](CCC(=O)O)NC(=O)[C@@H](NC(=O)[C@H](Cc1ccccc1)NC(=O)[C@H](CCC(=O)O)NC(=O)C(C)(C)NC(=O)[C@H](CCC(N)=O)NC(=O)[C@H](C)NC(=O)[C@H](CCCCNC(=O)COCCOCCNC(=O)COCCOCCNC(=O)CC[C@H](NC(=O)CCCCCCCCCCCCC(=O)O)C(=O)O)NC(=O)[C@H](CCCN)NC(=O)[C@H](CC(=O)O)NC(=O)[C@H](CC(C)C)NC(=O)[C@](C)(CC(C)C)NC(=O)[C@@H](NC(=O)[C@H](CO)NC(=O)[C@@H](NC(=O)[C@H](CC(=O)O)NC(=O)[C@H](CO)NC(=O)[C@@H](NC(=O)[C@](C)(Cc1ccccc1)NC(=O)[C@@H](NC(=O)CNC(=O)[C@H](CCC(=O)O)NC(=O)C(C)(C)NC(=O)[C@@H](N)Cc1ccc(O)cc1)[C@@H](C)O)[C@@H](C)O)C(C)C)[C@@H](C)CC)[C@@H](C)CC)C(=O)N[C@@H](CCC(=O)O)C(=O)NCC(=O)NCC(=O)N[C@@H](CCCCNC(=O)COCCOCCNC(=O)COCCOCCNC(=O)CC[C@H](NC(=O)CCCCCCCCCCCCC(=O)O)C(=O)O)C(=O)N[C@@H](CO)C(=O)N[C@@H](CO)C(=O)NCC(=O)N[C@@H](C)C(=O)N1CCC[C@H]1C(=O)N1CCC[C@H]1C(=O)N1CCC[C@H]1C(=O)N[C@@H](CO)C(N)=O [Example 179] (H-Y[Aib]EGT[αMeF]TSDVSI[αMeL]LD[Orn]K([AEEA-AEEA-γGlu-C14 diacid])AQ[Aib]EFI[dE][αMeY]LIEGGK([AEEA-AEEA-γGlu-C14 diacid])SSGAPPPS-NH2) | 91% | > 9950 nM | 99% |  |  |  |  |  |  | 
CC[C@H](C)[C@H](NC(=O)[C@H](CCCN)NC(=O)[C@H](CC(=O)O)NC(=O)[C@H](CC(C)C)NC(=O)[C@](C)(CC(C)C)NC(=O)[C@@H](NC(=O)[C@H](CO)NC(=O)[C@H](Cc1ccncc1)NC(=O)[C@H](CC(=O)O)NC(=O)[C@H](CO)NC(=O)[C@@H](NC(=O)[C@](C)(Cc1ccccc1F)NC(=O)[C@@H](NC(=O)CNC(=O)[C@H](CCC(=O)O)NC(=O)C(C)(C)NC(=O)[C@@H](N)Cc1ccc(O)cc1)[C@@H](C)O)[C@@H](C)O)[C@@H](C)CC)C(=O)N[C@@H](C)C(=O)N[C@@H](CCC(N)=O)C(=O)NC(C)(C)C(=O)N[C@@H](CCC(=O)O)C(=O)N[C@@H](Cc1ccccc1)C(=O)N[C@H](C(=O)N[C@@H](CCCCNC(=O)COCCOCCNC(=O)COCCOCCNC(=O)COCCOCCNC(=O)CC[C@H](NC(=O)CCCCCCCCCCCCC(=O)O)C(=O)O)C(=O)N[C@@](C)(Cc1ccc(O)cc1)C(=O)N[C@@H](CC(C)C)C(=O)N[C@H](C(=O)N[C@@H](CCCCNC(=O)COCCOCCNC(=O)COCCOCCNC(=O)COCCOCCNC(=O)CC[C@H](NC(=O)CCCCCCCCCCCCC(=O)O)C(=O)O)C(=O)NCC(=O)NCC(=O)N1CCC[C@H]1C(=O)N[C@@H](CO)C(=O)N[C@@H](CO)C(=O)NCC(=O)N[C@@H](C)C(=O)N1CCC[C@H]1C(=O)N1CCC[C@H]1C(=O)N1CCC[C@H]1C(=O)N[C@@H](CO)C(N)=O)[C@@H](C)CC)[C@@H](C)CC [Example 226] |  | > 9950 nM |  | 92.1% | 0.0232 nM | > 9950 nM | 11.3 nM | 118% |  | 
CC[C@H](C)[C@H](NC(=O)[C@H](CCCN)NC(=O)[C@H](CC(=O)O)NC(=O)[C@H](CC(C)C)NC(=O)[C@](C)(CC(C)C)NC(=O)[C@@H](NC(=O)[C@H](CO)NC(=O)[C@H](CCCCNC(=O)COCCOCCNC(=O)COCCOCCNC(=O)CC[C@H](NC(=O)CCCCCCCCCCCCC(=O)O)C(=O)O)NC(=O)[C@H](CC(=O)O)NC(=O)[C@H](CO)NC(=O)[C@@H](NC(=O)[C@](C)(Cc1ccccc1F)NC(=O)[C@@H](NC(=O)CNC(=O)[C@H](CCC(=O)O)NC(=O)C(C)(C)NC(=O)[C@@H](N)Cc1ccc(O)cc1)[C@@H](C)O)[C@@H](C)O)[C@@H](C)CC)C(=O)N[C@@H](C)C(=O)N[C@@H](CCC(N)=O)C(=O)NC(C)(C)C(=O)N[C@@H](CCC(=O)O)C(=O)N[C@@](C)(Cc1ccccc1)C(=O)N[C@H](C(=O)N[C@H](CCC(=O)O)C(=O)N[C@@](C)(Cc1ccc(O)cc1)C(=O)N[C@@H](CC(C)C)C(=O)N[C@H](C(=O)N[C@@H](CCCCNC(=O)COCCOCCNC(=O)COCCOCCNC(=O)CC[C@H](NC(=O)CCCCCCCCCCCCC(=O)O)C(=O)O)C(=O)NCC(=O)NCC(=O)N1CCC[C@H]1C(=O)N[C@@H](CO)C(=O)N[C@@H](CO)C(=O)NCC(=O)N[C@@H](C)C(=O)N1CCC[C@H]1C(=O)N1CCC[C@H]1C(=O)N1CCC[C@H]1C(=O)N[C@@H](CO)C(N)=O)[C@@H](C)CC)[C@@H](C)CC [Example 111] (H-Y[Aib]EGT[αMePhe(2-F)]TSDK([AEEA-AEEA-γGlu-C14 diacid])SI[αMeL]LD[Orn]IAQ[Aib]E[αMeF]I[dE][αMeY]LIK([AEEA-AEEA-γGlu-C14 diacid])GGPSSGAPPPS-NH2; N-terminus assumed) | 76.1% | > 9950 nM | 121% |  | 0.0202 nM |  |  |  |  | 
CC[C@H](C)[C@H](NC(=O)[C@H](CC(C)C)NC(=O)[C@](C)(Cc1ccc(O)cc1)NC(=O)[C@@H](CCC(=O)O)NC(=O)[C@@H](NC(=O)[C@H](Cc1ccccc1)NC(=O)[C@H](CCC(=O)O)NC(=O)C(C)(C)NC(=O)[C@H](CCC(N)=O)NC(=O)[C@H](C)NC(=O)[C@H](CCCCNC(=O)COCCOCCNC(=O)COCCOCCNC(=O)CC[C@H](NC(=O)CCCCCCCCCCCCC(=O)O)C(=O)O)NC(=O)[C@H](CCCN)NC(=O)[C@H](CC(=O)O)NC(=O)[C@H](CC(C)C)NC(=O)[C@](C)(CC(C)C)NC(=O)[C@@H](NC(=O)[C@H](CO)NC(=O)[C@H](Cc1cccc2ccccc12)NC(=O)[C@H](CC(=O)O)NC(=O)[C@H](CO)NC(=O)[C@@H](NC(=O)[C@](C)(Cc1ccccc1F)NC(=O)[C@@H](NC(=O)CNC(=O)[C@H](CCC(=O)O)NC(=O)C(C)(C)NC(=O)[C@@H](N)Cc1ccc(O)cc1)[C@@H](C)O)[C@@H](C)O)[C@@H](C)CC)[C@@H](C)CC)C(=O)N[C@@H](CCC(=O)O)C(=O)NCC(=O)NCC(=O)N[C@@H](CCCCNC(=O)COCCOCCNC(=O)COCCOCCNC(=O)CC[C@H](NC(=O)CCCCCCCCCCCCC(=O)O)C(=O)O)C(=O)N[C@@H](CO)C(=O)N[C@@H](CO)C(=O)NCC(=O)N[C@@H](C)C(=O)N1CCC[C@H]1C(=O)N1CCC[C@H]1C(=O)N1CCC[C@H]1C(=O)N[C@@H](CO)C(N)=O [Example 56] | 90.3 ± 2.57% | > 9950 nM |  | 91.4 ± 1.04% | 0.0138 nM | > 9950 nM |  | 123 ± 6.57% |  | 
CC[C@H](C)[C@H](NC(=O)[C@H](CC(C)C)NC(=O)[C@](C)(Cc1ccc(O)cc1)NC(=O)[C@@H](CCC(=O)O)NC(=O)[C@@H](NC(=O)[C@H](Cc1ccccc1)NC(=O)[C@H](CCC(=O)O)NC(=O)C(C)(C)NC(=O)[C@H](CCC(N)=O)NC(=O)[C@H](C)NC(=O)[C@H](CCCCNC(=O)COCCOCCNC(=O)COCCOCCNC(=O)CC[C@H](NC(=O)CCCCCCCCCCCCC(=O)O)C(=O)O)NC(=O)[C@H](CCCN)NC(=O)[C@H](CC(=O)O)NC(=O)[C@H](CC(C)C)NC(=O)[C@](C)(CC(C)C)NC(=O)[C@@H](NC(=O)C(C)(C)NC(=O)[C@H](Cc1ccc(O)cc1)NC(=O)[C@H](CC(=O)O)NC(=O)[C@H](CO)NC(=O)[C@@H](NC(=O)[C@](C)(Cc1ccccc1F)NC(=O)[C@@H](NC(=O)CNC(=O)[C@H](CCC(=O)O)NC(=O)C(C)(C)NC(=O)[C@@H](N)Cc1ccc(O)cc1)[C@@H](C)O)[C@@H](C)O)[C@@H](C)CC)[C@@H](C)CC)C(=O)N[C@@H](CCCCNC(=O)COCCOCCNC(=O)COCCOCCNC(=O)CC[C@H](NC(=O)CCCCCCCCCCCCC(=O)O)C(=O)O)C(=O)NCC(=O)NCC(=O)N1CCC[C@H]1C(=O)N[C@@H](CO)C(=O)N[C@@H](CO)C(=O)NCC(=O)N[C@@H](C)C(=O)N1CCC[C@H]1C(=O)N1CCC[C@H]1C(=O)N1CCC[C@H]1C(=O)N[C@@H](CO)C(N)=O [Example 231] |  | > 9950 nM |  | 85.4% | 0.0184 nM | > 9950 nM |  | 109% | 2.46 nM | 1.22 nM
